# Results from US20250134995A1, “SAPONIN-BASED ADJUVANTS AND METHODS OF CHARACTERIZING SAME” (priority 2023, published 2025).
# Like-named read-outs stand apart in the source and are kept apart here.
# Legend:
# [1] = in vitro, free QS-21; cited from earlier work
# [2] = in vivo; cited from earlier work
compound,measurement,setting,value
saponins,effect of presence of SARS-COV-2 antigen on relative activity in urine and kidney,"mouse, in vivo",increased relative activity
same,excretion pathway,"mouse, in vivo",rapidly excreted via the kidneys into urine
same,injected radioactive dose per gram tissue at the injection site and in the iliac LN,"mouse, in vivo",high percentage
same,level in bone marrow after the peak,"mouse, in vivo",declined
same,level in the QF and the iliac LN,"mouse, in vivo",low levels
same,"relative activity in plasma, urine, and kidney after the peak","mouse, in vivo",rapid decline
same,relative activity in the liver,"mouse, in vivo",low levels
same,systemic accumulation,"mouse, in vivo",do not accumulate systemically
same,"time of highest relative activity in testes, ovaries and uterus","mouse, in vivo",1 h
same,time of peak in bone marrow,"mouse, in vivo",3 h and 6 h
same,"time of peak relative activity in plasma, urine, and kidney","mouse, in vivo",1 to 3 h
same,time to near complete clearance (urine as major excretion pathway),"mouse, in vivo",≤ 7 days
same,time to removal from the injection site,"mouse, in vivo",≤ 48 h
"CC(C)CCC[C@@H](C)[C@H]1CC[C@H]2[C@@H]3CC=C4C[C@@H](O)CC[C@]4(C)[C@H]3CC[C@]12C [cholesterol, cholesterol [1-2-3H (N)]]",elimination,after 168 h,lack of complete elimination
same,distribution to the iliac LN compared to inguinal LN and popliteal LN,after QF injection,substantial
same,"plateau of relative activity in intestines, lungs, and bone marrow","both, CD-1 IGS, mouse, in vivo",5-20 % ID/g tissue
same,plateau of relative radioactivity in plasma and kidney,"both, CD-1 IGS, mouse, in vivo",5%-20%
same,"start of plateau of relative activity in testes, ovaries and uterus","both, CD-1 IGS, mouse, in vivo",24 h
same,time at which systemic levels reached a plateau,"both, CD-1 IGS, mouse, in vivo",around 24 h
same,time from which cholesterol levels are significantly higher than saponin levels at the injection site,"both, CD-1 IGS, mouse, in vivo",3 to 6 h
same,time to removal from the injection site,"both, CD-1 IGS, mouse, in vivo",≤ 48 h
same,decline of counts at the injection site,compared to saponin counts,slower decline
same,early relative radioactivity in plasma and kidney,"early timepoints, in contrast to saponins",lower relative radioactivity
same,activity in urine,"mouse, in vivo",Barely detectable activity
same,injected radioactive dose per gram tissue at the injection site and in the iliac LN,"mouse, in vivo",high percentage
same,"plateauing activity in spleen, heart, and brain","mouse, in vivo",lower levels
same,relative activity in the liver,"mouse, in vivo",low levels
same,relative activity in the liver versus saponins,"mouse, in vivo",slightly higher relative activity
same,reproductive organ with the highest relative activity,"mouse, in vivo",highest relative activity of cholesterol detected in the ovaries
QS-21,hemolytic activity,[1],shows hemolytic activity
same,pain at the injection site,[2],immediate pain at the injection site
